Common to all, as to type: functional
Assay [1] has as its system Mycobacterium tuberculosis. Kind of assay: Minimum inhibitory concentration against Mycobacterium tuberculosis sensitive clinical isolates.
Assay [2] concerns Mycobacterium intracellulare. Kind of assay: Minimum inhibitory concentration against Mycobacterium intracellular ATCC 13950.
Assay [3] concerns Mycobacterium avium. Kind of assay: Minimum inhibitory concentration against Mycobacterium avium ATCC 49601.
For assay [4], the system named is Mycobacterium tuberculosis. Nature of the assay: Minimum inhibitory concentration against Mycobacterium tuberculosis H37Rv ATCC 27294.
Assay [5] relates to Mycobacterium tuberculosis. Nature of the assay: Minimum inhibitory concentration against Mycobacterium tuberculosis sensitive clinical isolates; Range: 1-4 ug/ml.
The subject of assay [6] is Mycobacterium tuberculosis. Nature of the assay: Minimum inhibitory concentration against Mycobacterium tuberculosis sensitive clinical isolates; Range:4-16 ug/ml.
In assay [7] the test system is Mycobacterium tuberculosis. Nature of the assay: Minimum inhibitory concentration against Mycobacterium tuberculosis sensitive clinical isolates; Range: 0.125-0.25 ug/ml.

In brackets after ≈: the same amount, converted by molar mass.

The term MIC denotes the lowest concentration that inhibits growth of the organism.

As to `CC1=C(OCCCCN2CCOCC2)C(C)SC1=O` (stereo not given), the MIC in assay [1], in assay [2], in assay [3] and in assay [4] was > 16 µg/mL each time.

For the compound `CC1=C(OCCCCCN2CCOCC2)C(C)SC1=O` (stereo not given), the MIC in assay [1], in assay [2], in assay [3] and in assay [4] was > 16 µg/mL in each case.

As to `COC(=O)CSCCCOC1=C(C)C(=O)SC1C` (stereo not given), the MIC in assay [1], in assay [2], in assay [3] and in assay [4] was > 16 µg/mL each time.

On to `COC(=O)CSCCCCCOC1=C(C)C(=O)SC1C` (stereo not given), for which the MIC in assay [1], in assay [2], in assay [3] and in assay [4] was > 16 µg/mL throughout.

On to `CC1=C(OCCCCCCCCBr)C(C)SC1=O` (stereo not given), for which the MIC in assay [1], in assay [2], in assay [3] and in assay [4] was > 16 µg/mL each time.

On to `CC1=C(OCCCCCCBr)C(C)SC1=O` (stereo not given), for which the MIC in assay [1], in assay [2], in assay [3] and in assay [4] was > 16 µg/mL each time.

With `CC1=C(OCCCCCCCCN2CCOCC2)C(C)SC1=O` (stereo not given), the MIC in assay [1], in assay [2], in assay [3] and in assay [4] was > 16 µg/mL in each case.

In the case of `CC1=C(OCCCCCCCCCCN2CCN(C)CC2)C(C)SC1=O` (stereo not given), the minimum inhibitory concentration (MIC) in assay [1], in assay [2], in assay [3] and in assay [4] was > 16 µg/mL throughout.

Take `CC1=C(OCCCCN2CCN(C)CC2)C(C)SC1=O` (stereo not given): the MIC in assay [1], in assay [2], in assay [3] and in assay [4] was > 16 µg/mL in each case.

As for `CC1=C(OCCCBr)C(C)SC1=O` (stereo not given), the MIC in assay [1], in assay [2], in assay [3] and in assay [4] was > 16 µg/mL in each case.

Take `COC(=O)CSCCCCCCCCOC1=C(C)C(=O)SC1C` (stereo not given): the MIC was determined as 4 µg/mL (≈ 11.1 µM) in assay [2], 8 µg/mL (≈ 22.2 µM) in assay [3], 1 µg/mL (≈ 2.77 µM) in assay [4] and 4 µg/mL (≈ 11.1 µM) in assay [5].

As for `CC1=C(OCCCN2CCN(C)CC2)C(C)SC1=O` (stereo not given), the minimum inhibitory concentration (MIC) in assay [1], in assay [2], in assay [3] and in assay [4] was > 16 µg/mL throughout.

As for `CC1=C(OCCCCCBr)C(C)SC1=O` (stereo not given), the MIC in assay [1], in assay [2], in assay [3] and in assay [4] was > 16 µg/mL in each case.

In the case of `COC(=O)CSCCCCOC1=C(C)C(=O)SC1C` (stereo not given), the minimal inhibitory concentration (MIC) in assay [1], in assay [2], in assay [3] and in assay [4] was > 16 µg/mL each time.

Consider `COC(=O)CSCCCCCCOC1=C(C)C(=O)SC1C` (stereo not given), for which the minimal inhibitory concentration (MIC) in assay [1], in assay [2], in assay [3] and in assay [4] was > 16 µg/mL throughout.

For the compound `CC1=C(OCCCCCN2CCN(C)CC2)C(C)SC1=O` (stereo not given), the MIC in assay [1], in assay [2], in assay [3] and in assay [4] was > 16 µg/mL in each case.

Consider `CC1=C(OCCCCBr)C(C)SC1=O` (stereo not given), for which the MIC in assay [1], in assay [2], in assay [3] and in assay [4] was > 16 µg/mL in each case.

With `CC1=C(OCCCCCCCCN2CCN(C)CC2)C(C)SC1=O` (stereo not given), the MIC in assay [1], in assay [2], in assay [3] and in assay [4] was > 16 µg/mL each time.

Regarding `CC1=C(OCCCCCCCCCCBr)C(C)SC1=O` (stereo not given), the minimum inhibitory concentration (MIC) in assay [2] is > 16 µg/mL; in assay [3], > 16 µg/mL; in assay [4], 4 µg/mL (≈ 11 µM); in assay [6] it was 16 µg/mL (≈ 44 µM).

In the case of `CC1=C(OCCCCCCN2CCN(C)CC2)C(C)SC1=O` (stereo not given), the MIC in assay [1], in assay [2], in assay [3] and in assay [4] was > 16 µg/mL each time.

For the compound `CC1=C(OCCCCCCN2CCOCC2)C(C)SC1=O` (stereo not given), the MIC in assay [1], in assay [2], in assay [3] and in assay [4] was > 16 µg/mL throughout.

With `CC1=C(OCCCCCCCCCCN2CCOCC2)C(C)SC1=O` (stereo not given), the MIC in assay [1], in assay [2], in assay [3] and in assay [4] was > 16 µg/mL in each case.

Take `COC(=O)CSCCCCCCCCCCOC1=C(C)C(=O)SC1C` (stereo not given): the MIC in assay [1], in assay [2], in assay [3] and in assay [4] was > 16 µg/mL throughout.

On to `CC1=C(OCCCN2CCOCC2)C(C)SC1=O` (stereo not given), for which the MIC in assay [1], in assay [2], in assay [3] and in assay [4] was > 16 µg/mL in each case.

Take `NNC(=O)c1ccncc1` [ISONIAZID]: the MIC is 0.25 µg/mL (≈ 1.82 µM) in assay [7], 8 µg/mL (≈ 58.3 µM) in assay [2], > 16 µg/mL in assay [3] and 0.25 µg/mL (≈ 1.82 µM) in assay [4].
